How the values were obtained:
[1] = Analytical RP-HPLC retention time as a measure of peptide hydrophobicity; format: physicochemical; settings: RP-HPLC at 25 °C, Zorbax 300 SB-C8 column, linear AB gradient, A 0.1% aqueous TFA, B 0.1% TFA in acetonitrile, 1 mL/min, detection at 210 nm
Method: Among substitutions, the retention times ranged from 32.2 min (peptide V16K) to 40.4 min (peptide V16L), which reflect the pure effects of single amino acid substitutions. Thus, the retention times of peptides reflect the relative hydrophobicity of side chains. Consistent with previous studies, the hydrophobicity of peptide analogs was generally in the following order: Lys < Gly < Ser < Ala < Val < Leu. Glu-substituted peptide was an exception, as it contains a negatively-charged side chain and this should decrease the hydrophobicity of the peptide dramatically.
Peptides were analyzed on a Shimadzu LC-20A HPLC using a Zorbax 300 SB-C8 column (150 ° 4.6 mm i.d., 5 μm particle size, 300 Å pore size) from Agilent Technologies using a linear AB gradient and a flow rate of 1 mL/min, where solvents A and B were as described above. Absorbance signals of peptides were detected at 210 nm.

human red blood cells = assay: Hemolytic activity; format: cell-based; settings: peptide 1,000 μg/mL, 1% human erythrocytes in PBS, 37 °C for 4 h, absorbance at 540 nm, 100% = distilled water
Method: Peptide samples were serially diluted using phosphate-buffered saline (PBS) in 96-well plates (round-bottom) to give a volume of 60 μL of the sample solution in each well. Human erythrocytes that had been anticoagulated using EDTAK2 were collected by centrifugation (1,000 ×g) for 5 min, washed twice with PBS, then diluted to a concentration of 2% in PBS. The erythrocytes (60 μL of 2% solution) were added to each well to achieve a final concentration of 1% human erythrocytes per well, and the reactions were incubated at 37 °C for 4 h. The plates were then centrifuged for 10 min at 3000 rpm and the supernatant (80 μL) was transferred to a 96-well plate (flat-bottom). The release of hemoglobin was determined by measuring the absorbance of the supernatant at 540 nm. Peptide samples were diluted in a 2-fold series to determine the minimum concentration at which hemolysis occurred. Erythrocytes in PBS and distilled water were used as controls of 0% and 100% hemolysis, respectively. Hemolysis percentage was calculated by the absorbance of peptide at the concentration of 1,000 μg/mL and compared with the 100% hemolysis.

[2] = Dansyl-polymyxin B displacement assay (LPS binding affinity); parameters: species or system E. coli; settings: LPS 3 μg/mL in 5 mM HEPES pH 7.2, 25 °C, fluorescence; result in words, Figure 5
Method: As most of the outer membrane is LPS, the affinity of peptide analogs to LPS of E. coli was further detected by dansyl-polymyxin B displacement assay. As it is the polar face of the molecule that binds LPS, and all the peptides V16A, V16S, V16G and P have the same number of positively charged residues on the polar face, they would be expected to have similar effects on LPS affinity (Figure 5).
Dansyl-polymyxin B was synthesized, purified and quantified as reported. It was then dissolved in HEPES buffer (5 mM, pH 7.2) at the concentration of 100 μM and the final concentration of LPS is 3 μg/mL in the same buffer. Fluorescence measurements were run on a Shimadzu RF-5301 spectrofluorometer using a 3 mL quartz cuvette with an excitation wavelength of 350 nm and an emission wavelength of 420 nm at 25 °C. For displacement assay, 15 μL of peptide solution (10 mg/mL) was titrated into the cuvette containing 2 mL LPS and 0.25 mL dansyl-polymyxin B, and the decrease in the observed fluorescence (percent inhibition) was recorded.

CC[C@H](C)[C@H](NC(=O)[C@H](C)NC(=O)[C@H](CCCCN)NC(=O)[C@H](CC(C)C)NC(=O)[C@H](C)NC(=O)[C@@H](NC(=O)[C@H](Cc1cnc[nH]1)NC(=O)[C@H](CC(C)C)NC(=O)[C@@H](NC(=O)[C@@H](NC(=O)[C@H](CCCCN)NC(=O)[C@H](CCCCN)NC(=O)[C@H](C)NC(=O)[C@H](CO)NC(=O)[C@H](CCCCN)NC(=O)[C@H](Cc1ccccc1)NC(=O)[C@@H](NC(=O)[C@H](CCCCN)NC(=O)[C@H](CC(C)C)NC(=O)[C@H](Cc1ccccc1)NC(=O)[C@H](CO)NC(=O)[C@H](CCCCN)NC(=O)[C@H](Cc1c[nH]c2ccccc12)NC(=O)[C@H](CCCCN)NC(C)=O)[C@@H](C)O)[C@@H](C)O)C(C)C)[C@@H](C)O)C(=O)N[C@@H](CO)C(=O)N[C@@H](CO)C(N)=O [P]
tR, retention time during RP-HPLC (relative hydrophobicity) [1]: 38.2 min | Hemolysis Percentage (human red blood cells): 28.3%

Ac-KWKSFLKTFKSAKKTKLHTALKAISS-NH2 [Peptide V16K]
tR, retention time during RP-HPLC (relative hydrophobicity) [1]: 32.2 min | Affinity to LPS (inhibition of dansyl-polymyxin B binding) [2]: more affinity than the Ser- or Gly-substituted peptides
